Data published in US20100160332A1, “a2-Adrenoceptor Ligands” (The Provost, Fellows and Scholars of the College of the …, priority 2008, published 2010).
Read-outs that look alike come from different tables or passages of the source.

Columns and labels:
α2-ARs [1] = conditions: J. Med. Chem. 2007 and 2008 studies; cited from earlier work
α2-ARs [2] = target: T1, α2-ARs (Homo sapiens, UniProt P08913); test: [35S]GTPγS binding assay (agonist stimulation) in human brain cortical membranes; format: biochemical; conditions: for stimulation of [35S]GTPγS binding (agonist dose-response plot): compound alone
T1 sequence (P08913 whole entry): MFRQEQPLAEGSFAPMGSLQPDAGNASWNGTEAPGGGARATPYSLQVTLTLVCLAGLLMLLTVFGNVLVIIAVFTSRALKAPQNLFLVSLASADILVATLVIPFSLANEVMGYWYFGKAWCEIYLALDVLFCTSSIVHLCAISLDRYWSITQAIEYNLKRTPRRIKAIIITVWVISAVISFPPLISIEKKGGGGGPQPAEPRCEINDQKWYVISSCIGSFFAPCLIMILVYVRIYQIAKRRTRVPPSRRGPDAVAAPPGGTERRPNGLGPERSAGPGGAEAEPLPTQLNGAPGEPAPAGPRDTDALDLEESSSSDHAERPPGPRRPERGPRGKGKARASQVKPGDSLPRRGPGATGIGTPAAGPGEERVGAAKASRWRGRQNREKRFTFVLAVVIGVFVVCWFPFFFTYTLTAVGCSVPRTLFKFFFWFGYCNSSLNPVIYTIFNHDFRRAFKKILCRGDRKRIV
Description: The α2-ARs are G-protein coupled receptors (GPCRs), and as such, when the endogenous ligand binds to the receptor, a change in the conformation of the G-proteins occurs leading to the exchange of GDP by GTP on the α-subunit, promoting their dissociation into α-GTP and βγ subunits, and resulting in transmembrane signalling. A direct evaluation of this G-protein activity can be made by determining the guanine nucleotide exchange using radiolabelled GTP analogues. The [^35S]GTPγS binding assay constitutes a functional measure of the interaction of the receptor and the G-protein and is a useful tool to distinguish between agonists (increasing the nucleotide binding), inverse agonists (decreasing the nucleotide binding), and neutral antagonists (not affecting the nucleotide binding) of GPCRs.
(§1) Preparation of membranes. Neural membranes (P2 fractions) were prepared from the PFC of human brains obtained at autopsy in the Instituto Vasco de Medicine Legal, Bilbao, Spain. Postmortem human brain samples of each subject (˜1 g) were homogenized using a Teflon-glass grinder (10 up-and-down strokes at 1500 rpm) in 30 volumes of homogenization buffer (1 mM MgCl2, and 5 mM Tris-HCl, pH 7.4) supplemented with 0.25 M sucrose. The crude homogenate was centrifuged for 5 min at 1000×g (4° C.) and the supernatant was centrifuged again for 10 min at 40000×g (4° C.). The resultant pellet was washed twice in 20 volumes of homogenization buffer and recentrifuged in similar conditions. Aliquots of 1 mg protein were stored at −70° C. until assay.
[^35S]GTPγS binding assays. The incubation buffer for measuring [^35S]GTPγS binding to brain membranes contained, in a total volume of 500 μL, 1 mM EGTA, 3 mM MgCl2, 100 mM NaCl, […], 50 mM Tris-HCl at pH 7.4 and 0.5 nM [^35S]GTPγS. Proteins aliquots were thawed and re-suspended in the same buffer. The incubation was started by addition of the membrane suspension (40 μg of membrane proteins) to the previous mixture and was performed at 30° C. for 120 min with shaking. In order to evaluate the influence of the compounds on [^35S]GTPγS binding, 8 concentrations (10^−10 to 10^−3M) of the different compounds were added to the assay. Incubations were terminated by adding 3 mL of ice-cold re-suspension buffer followed by rapid filtration through Whatman GF/C filters pre-soaked in the same buffer. The filters were rinsed twice with 3 mL of ice-cold re-suspension buffer, transferred to vials containing 5 mL. of OptiPhase HiSafe II cocktail (Wallac, UK) and the radioactivity trapped was determined by liquid scintillation spectrometry (Packard 2200CA). […] Non-specific binding of the radioligand was defined as the remaining [^35S]GTPγS binding in the presence of 10 μM unlabelled GTPγS.

α2-ARs [3] = target: T1, α2-ARs; test: UK14304 stimulation of [35S]GTPγS binding in absence or presence of compounds (antagonism test); format: biochemical; conditions: human brain PFC, in vitro, 10^−5 M
Description: as §1
[^35S]GTPγS binding assays. The incubation buffer for measuring [^35S]GTPγS binding to brain membranes contained, in a total volume of 500 μL, 1 mM EGTA, 3 mM MgCl2, 100 mM NaCl, […], 50 mM Tris-HCl at pH 7.4 and 0.5 nM [^35S]GTPγS. Proteins aliquots were thawed and re-suspended in the same buffer. […] The filters were rinsed twice with 3 mL of ice-cold re-suspension buffer, transferred to vials containing 5 mL. of OptiPhase HiSafe II cocktail (Wallac, UK) and the radioactivity trapped was determined by liquid scintillation spectrometry (Packard 2200CA). […]

Tail suspension test = format: in vivo, rat
Description: FIG. 4 illustrates the rat tail suspension test for a number of compounds. The tail suspension test has become one of the most widely used models for assessing antidepressant-like activity in mice. The test is based on the fact that animals subjected to the short-term, inescapable stress of being suspended by their tail, will develop an immobile posture. Antidepressant medications reverse the immobility and promote the occurrence of escape-related behaviour.

[4] = tested on: extracellular NA levels in the PFC; test: In-vivo microdialysis, extracellular NA in the PFC of freely moving rats; design: species or system rat; conditions: for Emax, extracellular NA levels: local administration by reverse dialysis 1-100 μM in PFC
Description: The antagonistic properties of derivative 8b in-vitro, were substantiated by testing its effect on noradrenergic transmission in vivo using microdialysis experiments. This technique is a widely accepted method for sampling the extracellular fluid of the brain, allowing the study of different neurotransmitters in the extracellular area where the probe is implanted. This technique has been used to investigate the effect of different compounds on NA concentrations in the PFC, an area widely implicated in depression. The increase of NA concentration in the PFC of freely moving rats after drug administration is accepted as a good predictor for antidepressant activity. In this context, many antidepressants, including the α2-AR antagonist Mirtazapine, are able to increase dialysate levels of NA in the PFC.
Compounds 8b and RX821002 were dissolved in aCSF and perfussed via reverse dialysis at the time indicated by the arrows (every 70 minutes). Data correspond to the mean±standard error mean values from 3 to 5 animals for each group, and are expressed as percentages of the corresponding basal values.
Control rats were administered with the vehicle (saline). Intraperitoneal administration of compound 8b (10 mg/kg) increased NA extracellular concentration by 161±30% in the PFC. Data are given as mean±standard error mean values from 4-5 separate animals for each group and are expressed as percentages of the corresponding basal values. The arrow represents the time of administration of the compound or vehicle.
Microdialysis experiments Male Sprague-Dawley rats (250-300 g) were implanted with a probe in a stereotaxic apparatus under chloral hydrate anaesthesia (400 mg/kg i.p.). The probe was located in the prefrontal cortex (PFC) according to the co-ordinates of the atlas of Paxinos and Watson (AP (anterior to bregma) +2.8 mm, L (lateral from the mid-sagittal suture) +1 mm, DV (ventral from the dura surface) −5 mm). Experiments were performed 20-24 h after the probe implantation and aCSF (148 mM NaCl, 2.7 mM KCl, 1.2 mM CaCl2 and 0.85 mM MgCl2; pH 7.4) was pumped at a flow rate of 1 μl/min (CMA/Microdialysis infusion pump). […] Samples were collected every 35 min and NA concentrations analyzed by HPLC apparatus with amperometric detection (Hewlett-Packard model 1049A) at an oxidizing potential of +650 mV. […] Samples (injection volume 30 μl) were injected and NA analyzed in a run time of 10 min. […] All measures of extracellular NA concentrations are expressed as percentage of the baseline value±s.e.mean. One-way analysis of variance (ANOVA) for control group or two-way ANOVA between control and each treated group was assessed for statistical analysis. […]

Compound | Emax (α2-ARs [2]) | stimulation of [35S]GTPγS binding (agonist dose-response plot) (α2-ARs [2]) | Emax (α2-ARs [2]; read-out: Emax (%)) | also measured
c1cc2c(cc1NC1=NCCN1)OCO2 [5′] |  |  |  | behaviour at α2-ARs (α2-ARs [1]): antagonist behaviour
N=C(N)Nc1ccc2c(c1)CCCC2 [6′] |  |  |  | behaviour at α2-ARs (α2-ARs [1]): antagonist behaviour
CNc1ccc(NC2=NCCN2)cc1 [Compound 4b, N-imidazolidin-2-ylidene-N′-methyl-benzene-1,4-diamine] | 98% | stimulated binding of [^35S]GTPγS |  | 
CCNc1ccc(NC2=NCCN2)cc1 [Compound 5b, N-ethyl-N′-imidazolidin-2-ylidene-benzene-1,4-diamine] | 95% | stimulated binding of [^35S]GTPγS |  | 
CCN(C)c1ccc(NC2=NCCN2)cc1 [Compound 6b, N-Ethyl-N′-imidazolidin-2-ylidene-N-methyl-benzene-1,4-diamine] | 103% | stimulated binding of [^35S]GTPγS |  | 
CNc1ccc(NC(=N)N)cc1 [Compound 7b, N-(4-methylamino-phenyl)-guanidine] |  | stimulated binding of [^35S]GTPγS | 87% | 
CCNc1ccc(NC(=N)N)cc1 [Compound 8b, N-(4-ethylamino-phenyl)-guanidine] |  | did not stimulate binding of [^35S]GTPγS |  | nature at α2-ARs from shift of UK14304 EC50 (α2-ARs [3]): behaves as an antagonist; performance against fluoxetine (Tail suspension test; 8b 10 mg/kg vs fluoxetine 40 mg/kg): vastly outperforms; time in immobile posture (Tail suspension test; FIG. 4, against all other compounds tested): shortest length of time; ability to cross the blood brain barrier (BBB) ([4]; inferred from NA increase after intraperitoneal administration): ability of the compound to cross the blood brain barrier; increase of NA extracellular concentration ([4]; intraperitoneal 10 mg/kg, PFC, percentages of basal values): 161±30%; Emax, extracellular NA levels ([4]; percentages of basal values): 304±54%
CCN(C)c1ccc(NC(=N)N)cc1 [Compound 9b, N-[4-(ethyl-methyl-amino)-phenyl]-guanidine] |  | stimulated binding of [^35S]GTPγS | 92% | 
CCN(CC)c1ccc(NC(=N)N)cc1 [Compound 17, reference compound] |  | stimulated binding of [^35S]GTPγS | 89% | 
COC1(C2=NCCN2)COc2ccccc2O1 (stereo not shown) [RX821002, 2-methoxy-idazoxan, reference compound] |  |  |  | Emax, extracellular NA levels ([4]; percentages of basal values): 290±35%
